# Test results: PubChem BioAssay (NCI)
#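 Five compound concentrations were applied to cells in 96-well plates for 48 hours; endpoints were derived by simple linear interpolation of the resulting dose-response curve. TGI: total growth inhibition.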
# Tests used:
# Experiment in all cases: NCI-60 cell line screen, 48 h
# [1] = system: SK-OV-3 ovarian
# [2] = system: ACHN renal
# [3] = system: NCI-H23 lung
# [4] = system: NCI-H522 lung
# [5] = system: OVCAR-8 ovarian
# [6] = system: OVCAR-5 ovarian
# [7] = system: SN12C renal
# [8] = system: UO-31 renal
# [9] = system: NCI-H460 lung
# [10] = system: HL-60(TB) leukemia
# [11] = system: IGROV1 ovarian
# [12] = system: SF-539 CNS
# [13] = system: SW-620 colon
# [14] = system: HOP-62 NSCLC
# [15] = system: SK-MEL-5 melanoma
# [16] = system: EKVX NSCLC
# [17] = system: OVCAR-3 ovarian
# [18] = system: LOX IMVI melanoma
# [19] = system: KM20L2 colon
# [20] = system: SNB-19 CNS
SMILES,TGI [1] [µM],TGI [2] [µM],TGI [3] [µM],TGI [4] [µM],TGI [5] [µM],TGI [6] [µM],TGI [7] [µM],TGI [8] [µM],TGI [9] [µM],TGI [10] [µM],TGI [11] [µM],TGI [12] [µM],TGI [13] [µM],TGI [14] [µM],TGI [15] [µM],TGI [16] [µM],TGI [17] [µM],TGI [18] [µM],TGI [19] [µM],TGI [20] [µM]
COc1ccc(C[C@H](N)C(=O)N2C[C@@H](CO)C[C@@H](n3ccc(=O)[nH]c3=O)C2)cc1,> 100,> 100,> 100,> 100,> 100,> 100,> 100,> 100,> 100,> 100,> 100,> 100,> 100,> 100,> 100,> 100,> 100,> 100,> 100,> 100
COC1OC2=CCC3C(=O)NC(=O)C3C2[C@H](OCc2ccccc2)C1OCc1ccccc1 (some centres undefined),30.8,34.8,4.7,3.18,3.07,29.1,3.14,32.2,32.6,–,3.86,31,2.95,31.7,34.1,3.39,3.1,3.22,5.59,–
O=C(N/N=C/c1cc(Br)cc(Br)c1[O-])c1ccccc1O.O=C(N/N=C/c1cc(Br)cc(Br)c1[O-])c1ccccc1O.[Ni+2],1.95,1.53,2.65,0.727,1.34,1.34,–,8.5,1.66,0.346,1.34,0.72,1.94,1.82,1.44,2.97,0.52,1.84,1.85,3.67
CCCCNC(=O)/N=C/c1c(O)c2ccccc2oc1=O,–,> 100,> 100,–,> 100,> 100,> 100,56.3,> 100,57.4,> 100,> 100,> 100,> 100,> 100,> 100,–,> 100,> 100,> 100
